Experimental data taken from patent publication US10907168B2, “Jasmonic acid pathway activator” (MEDICAGO INC., priority 2015, dated 2021).

System: C5-1 antibody
Test: C5-1 antibody quantification by ELISA in agroinfiltrated leaves
Format: in vivo, Nicotiana benthamiana
Description: Forty-two day-old N. benthamiana plants grown in greenhouse were used for the experiments. Each plant was sprayed evenly with 50 ml of 0.5 mM, 1 mM or 2 mM MeJA in water containing 0.1% (v/v) Triton X-100 (Sigma-Aldrich, Mississauga ON, Canada), or with 50 ml of 1 mM arachidonic acid (Girard et al., 2007) in the same solvent, and transferred for seven days in a Conviron growth chamber (Conviron, Winnipeg MB, Canada). Plants sprayed with 50 ml of 0.1% (v/v) Triton X-100 in water were used in parallel as negative controls to avoid confounding effects due to experimental conditions. Two or three 1-cm^2 leaf discs were harvested from the third main stem leaf (see Robert et al., 2013) after seven days, as source material for protein and RNA extraction. The leaf samples were frozen immediately in liquid nitrogen and stored at −80° C. until protein or RNA extraction. Three to five biological (plant) replicates were used for each treatment, to allow for statistical treatment of the data. Two gene vectors were used for the agroinfiltration assays: an engineered pcambia2300 vector encoding the light and heavy chains of C5-1 fused to an N-terminal signal peptide sequence for cellular secretion (see Goulet et al., 2012 for details on gene construct); and the original (“empty”) pcambia2300 binary vector (CAMBIA, Canberra, Australia) as a control for agroinfection. The two binary vectors were electroporated into A. tumefaciens strain LBA4404 and the cultures were maintained in Luria-Bertani (LB) medium supplemented with 50 μg/ml kanamycin and 50 μg/ml rifampicin. For infiltration, bacteria were grown to stable phase at 28° C. to an OD600 of 1.0 and collected by centrifugation at 2,000 g. The bacterial pellets were resuspended in 10 mM 2-[N-morpholino] ethanesulfonic acid] (MES) buffer, pH 5.8, containing 100 μM acetosyringone and 10 mM MgCl2. Leaf infiltration was performed using a needle-less syringe as described earlier (D'Aoust et al., 2009), after mixing the C5-1 antibody (or empty vector) agrobacterial suspension with an equal volume of bacterial suspension carrying a binary vector for the protein silencing suppressor p19 (Voinnet et al., 2003). Infiltrated tissue for molecular characterization was collected six days post-infection (i.e. seven days post-MeJA or arachidonate treatment), unless otherwise indicated. Three to five biological (plant) replicates were used for each treatment to allow for statistical analyses. ELISA plates for C5-1 antibody quantification (Becton Dickinson, Mississauga ON, Canada) were coated with 3.75 μg/ml goat anti-mouse heavy chain-specific IgG1 (Sigma-Aldrich) in 50 mM carbonate buffer (pH 9.0) at 4° C. for 16-18 h. The plates were washed three times in 10 mM phosphate-buffered saline containing 0.1% (v/v) Tween 20 (PBS-T), blocked through a 1-h incubation at 37° C. in 1% (w/v) casein in phosphate-buffered saline (PBS) (Pierce, Rockford Ill., USA), and washed three times in PBS-T. A standard curve was generated for each plate with 0, 4, 8, 16, 24, 32, 40 and 60 ng/ml of purified mouse IgG1 (Sigma-Aldrich). All dilutions (controls and samples) were performed in a control extract obtained from leaf tissue infiltrated with a mock inoculum so that any matrix effect was eliminated. The plates were incubated with protein samples for 1 h at 37° C., washed three times in PBS-T and then incubated with peroxidase-conjugated goat anti-mouse IgG (H+L) antibodies (0.02 μg/ml in blocking solution) (Jackson ImmunoResearch) for 1 h at 37° C. After additional washes with PBS-T, the plates were incubated with the 3,3′,5,5′-tetramethylbenzidine Sure Blue peroxidase substrate (KPL, Gaithersburg Md., USA). The reaction was stopped by the addition of 1 N HCl and the absorbance was read at 450 nm. Three independent (biological) replicates were used for each assay.

[1] = ELISA, 1 mM, 24 h before infiltration

CC/C=C\C[C@H]1C(=O)CC[C@@H]1CC(=O)OC [MeJA, methyl jasmonate]
C5-1 yield change (1 mM, 24 h before infiltration, antibody expressed under alfalfa plastocyanin promoter): more than twofold decrease | C5-1 net yield as share of TSP [1]: ~7 % TSP | C5-1 net yield on a protein-relative basis [1]: 70 ng antibody/μg soluble proteins | C5-1 protein-relative yield compared with control leaves (ELISA, 1 mM, 24 h before infiltration, P<0.05): about twice | C5-1 yield on a weight basis (ELISA, 1 mM, 24 h before infiltration, maximum yield): ~425 μg/g leaf tissue | C5-1 yield on a weight basis (ELISA, 2 mM, 24 h before infiltration): ~325 μg/g leaf tissue | C5-1 yield change (ELISA, sprayed 24 h post-infiltration (0.5 or 1 mM)): No yield increase
